Results from patent publication US11835499B2, “Methods of quantifying methylglyoxal-induced nucleic acid adducts” (CITY OF HOPE, priority 2018, dated 2023).

Legend:
[1] = Stability of CEdG in acidic solution (acid-catalyzed depurination and sidechain isomerization); assay type: physicochemical; details: acidic hydrolysis, 1 M AcOH at 37° C.
Procedure: A 1.25 mM solution of CEdG-A, B or dG in 100 μL of 1M AcOH (pH 2.4) was stirred at 37° C. Aliquots (10 μl) were removed periodically and added to 40 μL of 2M TEAA (pH 7.0). HPLC product analyses were performed using an Alltech HS HyperPrep 100 BDS C18 8μ column. A gradient of 0 to 4% CH3CN over 5 min was followed by 6.5% CH3CN over 30 min. TEAA (pH 7) was kept constant at 50 mM. The ratio of free base (CEGuanine or Guanine) to intact nucleoside (CEdG or dG) was calculated by integration of the corresponding HPLC peaks (see inset in FIG. 4). The CEG free base was identified as Peak A by ESI-MS in negative ion mode. C8H8O3N5, observed: m/z 222.064; calculated: m/z 222.063.
The chemical stability of CEdG was examined as an important criterion for evaluating its suitability as a quantitative biomarker. Purified stereoisomers of synthetic CEdG were subjected to acidic conditions (1 M AcOH at 37° C.) and the extent of released free base and diastereomer interconversion was monitored by HPLC as a function of time.

calf thymus DNA = assay: Artifactual CEdG formation in calf thymus DNA during workup, with carbonyl scavenger
Procedure: Calf thymus or tissue-extracted DNA (100 μg) was dissolved in 80 μL of autoclaved 18.2 MΩ H2O containing 20 μL of sodium acetate (100 mM, pH 5.5), 20 μL of 1×TBE, 1.5 μL of 50 mM ZnCl2, and 2.37 μL of a 100 mM AG or D-P stock solution. DNA was denatured at 95° C. for 5 min on a PCR heating block and then brought to 4° C. for 5 min. After equilibration to 45° C., 1.5 μL of 10 U/μL nuclease P1 was added. Alkaline phosphatase (4 μL of 8 U/μL), 1 U of bovine phosphodiesterase, and 14 μL of 100 mM CaCl2 were added after 1 hour, and the hydrolysis/dephosphorylation was continued for another 7 hours. […] DNA concentrations were determined by UV spectroscopy (1 OD260=50 μg/ml) and samples were stored at −80° C. prior to MS analyses. A 5 μL aliquot of digest was diluted to 200 μL and used for quantitation of 2′-deoxyguanosine by HPLC integration using a Beckman C18 reverse phase (25 cm×4.6 mm) column (Fullerton, CA). […]
Commercial grade calf thymus DNA was used as a model substrate for developing a protocol for CEdG quantitation in double-stranded DNA. […] Concentrations of AG from 0.5 to 50 mM were added prior to workup, and CEdG levels were measured in order to determine the optimal concentration required to achieve stable, reproducible levels. […]

[2] = tested on: DNA extracted from breast tumor or adjacent tissue; assay: Artifactual CEdG formation during DNA extraction from human breast tumor and adjacent tissue, with carbonyl scavenger; details: 10 mM D-penicillamine in two aliquots during cell lysis/DNA isolation and hydrolysis/dephosphorylation
Procedure: Breast tumor and adjacent normal tissue were obtained from the frozen tumor bank of the City of Hope Pathology Core. A pea-sized section (˜100 mg) of tissue was minced and suspended in 1.2 mL of digestion buffer (100 mM NaCl, 10 mM Tris HCl, pH 8, 25 mM EDTA, pH 8, 0.5% SDS, 0.2 mg/mL proteinase K, 10 mM D-penicillamine) and incubated at 50° C. in a water bath for 12-18 h. DNA was then extracted using an equivalent volume of phenol/chloroform/isoamyl alcohol (25:24:1). The aqueous fraction was separated and 0.5 volumes of ammonium acetate and 2 volumes of 100% ethanol were added. The DNA was spooled, washed twice with 70% ethanol, pelleted, and resuspended in autoclaved 18.2 MΩ water. The enzymatic hydrolysis was carried out as described above.
Levels of CEdG in DNA extracted from either breast tumor or adjacent tissue in the absence of carbonyl scavenger were ˜1.5-2.0-fold higher; however, artifactual formation was inhibited by the addition of 10 mM D-penicillamine in two aliquots during both the cell lysis/DNA isolation and hydrolysis/dephosphorylation steps. ^15N-enriched isotopomers of CEdG differing from the unlabeled adducts by 5 amu were synthesized, which provided sufficient mass resolution for accurate and reproducible quantitation using the stable isotope dilution method.

CC(Nc1nc2c(ncn2[C@H]2C[C@H](O)[C@@H](CO)O2)c(=O)[nH]1)C(=O)O (single isomer, unassigned) [CEdG-A, N^2-(1-carboxyethyl)-2′-deoxyguanosine]
racemization of the sidechain stereocenter / interconversion of CEdG isomers A and B [1]: No racemization

CC(Nc1nc2c(ncn2[C@H]2C[C@H](O)[C@@H](CO)O2)c(=O)[nH]1)C(=O)O (single isomer, unassigned) [CEdG-B, N^2-(1-carboxyethyl)-2′-deoxyguanosine]
racemization of the sidechain stereocenter / interconversion of CEdG isomers A and B [1]: No racemization

N=C(N)NN [AG, aminoguanidine]
CEdG adduct levels after hydrolysis/dephosphorylation (calf thymus DNA; 10 mM AG added prior to sample processing, without scavenger 60-66 CEdG/10^6 dG): 45-50 CEdG/10^6 guanines | CEdG levels after mock proteolysis and hydrolysis/dephosphorylation (calf thymus DNA; 10 mM AG in two aliquots, without scavenger 80-100 CEdG/10^6 guanines): drop in measured CEdG levels

CC(C)(S)[C@@H](N)C(=O)O [D-penicillamine]
artifactual CEdG formation [2]: inhibited
